According to article PMC7830597, “Derivatives of Tenuazonic Acid as Potential New Multi-Target Anti-Alzheimer’s Disease Agents” (Biomolecules, 2021):
“Also recorded” adds a separate entry of the source. Read-outs that look alike come from different tables or passages of the source.

Experiments:
[1] = target: AChE of electroforus electricus (electric eel) (Electrophorus electricus, UniProt O42275); experiment: biochemical; settings: mean of three independent experiments ± SEM
Procedure: All new racemic compounds were tested as acetylcholinesterase inhibitors via an in vitro assay, following a modification of Ellman’s method in three independent experiments, using tacrine as a reference compound. […] Enzyme inhibition assays were performed using an adaptation of Ellman’s method. The readings were made in a spectrophotometer Perkin-Elmer Lambda 35 UV-Vis. Enzyme activity is measured by following the increase in yellow color produced from thiocholine when it reacts with dithiobisnitrobenzoate ion (DTNB). DTNB solution was obtained dissolving the reagent in HEPES buffer with salts, namely NaCl (50 mM) and MgCl2 (20 mM), obtaining a 3 mM solution. The enzyme AChE of electroforus electricus (electric eel) stock (500 U) was dissolved in TRIS 50 mM, pH 8.0, being posteriorly diluted to assay concentrations (5 U), obtaining an aliquot of 1 mL. The enzyme substrate used was acetylthiocholine iodide (AThCh, 16 mM), which was prepared with deionized water. The compounds tested were diluted in MeOH or DMSO (1 mg/mL, 2–7 × 10^−3 M), with further dilution, and five different concentrations were used for each compound, obtaining different percentages of AChE inhibition. The assay consists in the addition of HEPES (50 mM, pH = 8), inhibitor, AChE and MeOH in a 1 mL cuvette. The mixture was left to incubate for 15 min and, after that, AThCh and DTNB were added. The enzymatic reaction was followed through the measurements of absorbencies at 405 nm (Perkin Elmer Lambda 35 spectrophotometer equipped with a temperature programmer PTP 1þ1 Peltier System, using thermostated (T = 25.0 ± 0.1 °C) 1 cm path length cells) during 5 min. A blank solution containing all the components except the enzyme, that was substituted for equal volume of HEPES, was used. A control reaction was used using MeOH instead of the new compounds and was considered the reaction corresponding to 100% enzymatic activity. Each assay was performed in quintupled.

[2] = Radical scavenging activity, DPPH method; settings: DPPH assay; mean ± SEM of 3 independent experiments
Procedure: Therefore, they were assayed for radical scavenging activity using the DPPH method.
The final volume of the assay was 3.5 mL, corrected with MeOH to obtain different concentrations of our compound in each assay. The control solution was composed of MeOH and DPPH [14]. After 30 min, at RT, protected from light, the absorbance was measured at 517 nm (Perkin Elmer Lambda 35 spectrophotometer equipped with a temperature programmer PTP 1þ1 Peltier System, using thermostated (T¼25.0 ± 0.1 °C) 1 cm path length cells), against a blank solution (MeOH). The assays were performed in triplicate, in which the EC50 was obtained through the graphical representation of the %AA vs. the inhibitor concentration.

Aβ1-42 [3] = target: T1, Aβ1-42 (Homo sapiens, UniProt P05067); experiment: biochemical; settings: for Inhib. Aβ Aggreg. Self-Induced: 40 µM; for inhibition at 40 µM: read-out: Inhib. Aβ Aggreg. Self-Induced
T1 construct: Amyloid β peptide (Aβ1-42) was purchased from GeneCust as a lyophilised powder; purchased GeneCust
T1 sequence (P05067 672-713 limits assumed): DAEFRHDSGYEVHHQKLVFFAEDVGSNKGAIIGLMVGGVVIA
Procedure: The anti-amyloidogenic activity of all the compounds was also evaluated in vitro, in the absence and in presence of Cu(II), by measuring the fluorescence emission of Thioflavin T (ThT).
The spectrofluorimetric method, based on the fluorescence emission of thioflavin T (ThT), was used to study the Aβ1-42 aggregation inhibition. Firstly, Aβ1-42 was dissolved in HFIP (1,1,1,3,3,3-Hexafluoro-2-propanol) and kept overnight at room temperature in order to obtain a dry film. […] The ligand solutions were prepared with MeOH (1mg/mL) and further with phosphate buffer. […] As a control, a solution of 30 μL of phosphate buffer and 30 μL of Aβ1-42 was used to observe the aggregation without any inhibition, while the ligand assay solutions were composed of 20 μL of phosphate buffer, 30 μL of Aβ1-42 and 10 μL of ligand. The Cu-induced aggregation studies were similarly conducted, adding 10 μL of CuCl2 to induce the fibril aggregation. Each experiment was composed of an assay and a blank sample, where the blank sample lacks Aβ1-42, to monitor the effect of the compounds on the fluorescence emission. The samples were left to incubate in a CERTOMAT WR water bath for 24 h at 37 °C with shaking. After 24 h, a Glycine-NaOH buffer (pH = 8.5) containing ThT were added to each sample in a microplate. The fluorescence signal was monitored at 446 nm (λexc) and 486 nm (λem) with a Varian Cary Eclipse fluorimeter. Amyloid β peptide (Aβ1-42) was purchased from GeneCust as a lyophilised powder and stored at −20 °C [12, 13, 14].

[4] = test system: SH-SY5Y human neuroblastoma cells; experiment: Neuroprotection against Aβ1-42-induced toxicity, MTT; format: cell-based; settings: Aβ1-42 2.5 μM 24 h; 1 h pre-incubation; compounds 1, 2 100 µM; 4 10 µM; 5 20 µM
Procedure: (§1) SH-SY5Y human neuroblastoma cells (ATCC-CRL-2266) were seeded in DMEM/F12 (Dulbecco’s Modified Eagle Medium/Ham’s F-12 Nutrient Mixture; Thermo Fisher Scientific) with 10% heat inactivated fetal bovine serum, 50 U/mL penicillin and 50 U/mL streptomycin under a humidified atmosphere with 95% relative humidity at 37 °C at a 0.16 × 10^6 cells/mL density. Stock solutions from tested compounds (1, 2, 4 and 5) were prepared in DMSO at a 25 mM concentration and stored at −20 °C until needed. In order to select the highest non-toxic concentration, a dose-response screening was performed, where SH-SY5Y cells were exposed to the compounds for 25 h. The selected concentrations for each compound were: 75 µM final concentration for 1 and 2; 10 µM final concentration for 4 and 20 µM final concentration for 5. […] For the neuroprotection assays, the selected compounds were added to the cell media 1 hour prior to the incubation with Aβ1-42 or L-ascorbic acid/ferrous sulphate. Aβ1-42 or L-ascorbic acid/ferrous sulphate treatment was maintained for another 24 h. Aβ1-42 was prepared as 276.9 µM stock in sterile water and administrated in the medium at a 2.5 µM final concentration. Ferrous sulphate was freshly prepared as 0.36 M stock in water and added to the medium at 2.5 mM final concentration. L-ascorbic acid was freshly prepared as 80 mM stock in water and added to the medium at 5 mM final concentration. Aβ1-42 was purchased from Bachem (Torrance, CA, USA) and ferrous sulphate and L-ascorbic acid from Sigma Chemical Co (St. Louis, MO, USA).
(§2) Cell viability was measured by using the MTT (3-(4,5-dimethylthiazol-2-yl)-2,5-diphenyl tetrazolium bromide) reduction assay. This test is based on the presence of succinate dehydrogenase enzyme in viable cells, that allows them to metabolize MTT into a formazan. After treatment, the medium was removed, and cells were washed with 1x PBS one time to remove dead cells. 200 µL of MTT solution (0.5 mg/mL) was added to each well and incubated for 2 h protected from light. Formazan precipitates were then dissolved in DMSO and absorbance measured at 570 nm. The ability to reduce MTT was expressed as a percentage of untreated control cells.
Overnight cultures were treated with Aβ1-42 peptide (2.5 μM) for 24 h in the absence or in the presence of the compounds. When compounds were present, a pre-incubation of 1 h preceded the Aβ1-42 treatment. Cellular viability was determined by employing the MTT reduction assay. […] (compounds: 1, 2–100 µM; 4–10 µM; 5–20 µM).

[5] = test system: SH-SY5Y human neuroblastoma cells; experiment: Dose-response cell viability screening, MTT reduction assay; format: cell-based; settings: for highest non-toxic concentration (selected concentration): SH-SY5Y cells exposed for 25 h
Procedure: as §1, §2
Figure 10 Dose-response screening of compounds 1, 2, 4 and 5 on SH-SY5Y neuronal cell line. Overnight cultures were treated with a range of concentrations from 10 μM to 100 μM for 24 h and cellular viability was determined by employing the MTT reduction assay.

Aβ1-42 [6] = target: T1, Aβ1-42; experiment: Inhibition of Cu2+-induced Aβ1-42 aggregation, thioflavin T fluorescence; format: biochemical; settings: inhibitor 40 µM, copper 40 µM
Procedure: The anti-amyloidogenic activity of all the compounds was also evaluated in vitro, in the absence and in presence of Cu(II), by measuring the fluorescence emission of Thioflavin T (ThT). […] The Aβ self-aggregation inhibitory activity shown by all compounds is higher than that of parent compound TA, with the exception of compound 2 (probably due to solubility issues at the experimental conditions of the assays). The fact that the reference value previously reported by us for TA (50 ± 8%) was obtained for quite different conditions, including a much higher inhibitor concentration (100 μM instead of 40 μM) is noteworthy. […] This may be due to different electronic contributions between the ketone and the ester functions. Therefore, the ester derivatives seem to be better chelators compared to TA.
The spectrofluorimetric method, based on the fluorescence emission of thioflavin T (ThT), was used to study the Aβ1-42 aggregation inhibition. Firstly, Aβ1-42 was dissolved in HFIP (1,1,1,3,3,3-Hexafluoro-2-propanol) and kept overnight at room temperature in order to obtain a dry film. Then, the film was re-dissolved in CH3CN-Na2CO3 (300μM)/NaOH (250μM) (48.3/48.3/3.4 mL v/v/v) and then phosphate buffer (pH = 8) was added. The ligand solutions were prepared with MeOH (1mg/mL) and further with phosphate buffer. For the inhibition studies of copper-induced Aβ aggregation, a solution of CuCl2 240 μM was used. As a control, a solution of 30 μL of phosphate buffer and 30 μL of Aβ1-42 was used to observe the aggregation without any inhibition, while the ligand assay solutions were composed of 20 μL of phosphate buffer, 30 μL of Aβ1-42 and 10 μL of ligand. The Cu-induced aggregation studies were similarly conducted, adding 10 μL of CuCl2 to induce the fibril aggregation. Each experiment was composed of an assay and a blank sample, where the blank sample lacks Aβ1-42, to monitor the effect of the compounds on the fluorescence emission. The samples were left to incubate in a CERTOMAT WR water bath for 24 h at 37 °C with shaking. After 24 h, a Glycine-NaOH buffer (pH = 8.5) containing ThT were added to each sample in a microplate. The fluorescence signal was monitored at 446 nm (λexc) and 486 nm (λem) with a Varian Cary Eclipse fluorimeter. Amyloid β peptide (Aβ1-42) was purchased from GeneCust as a lyophilised powder and stored at −20 °C [12, 13, 14].

[7] = test system: SH-SY5Y human neuroblastoma cells; experiment: Neuroprotection against ferrous sulfate/L-ascorbic acid insult, MTT; format: cell-based; settings: Fe/Asc 24 h; 1 h pre-incubation; compound 5 20 µM
Procedure: SH-SY5Y human neuroblastoma cells (ATCC-CRL-2266) were seeded in DMEM/F12 (Dulbecco’s Modified Eagle Medium/Ham’s F-12 Nutrient Mixture; Thermo Fisher Scientific) with 10% heat inactivated fetal bovine serum, 50 U/mL penicillin and 50 U/mL streptomycin under a humidified atmosphere with 95% relative humidity at 37 °C at a 0.16 × 10^6 cells/mL density. Stock solutions from tested compounds (1, 2, 4 and 5) were prepared in DMSO at a 25 mM concentration and stored at −20 °C until needed. In order to select the highest non-toxic concentration, a dose-response screening was performed, where SH-SY5Y cells were exposed to the compounds for 25 h. The selected concentrations for each compound were: 75 µM final concentration for 1 and 2; 10 µM final concentration for 4 and 20 µM final concentration for 5. […]
Cell viability was measured by using the MTT (3-(4,5-dimethylthiazol-2-yl)-2,5-diphenyl tetrazolium bromide) reduction assay. […] Formazan precipitates were then dissolved in DMSO and absorbance measured at 570 nm. The ability to reduce MTT was expressed as a percentage of untreated control cells.
Figure 12 Neuroprotective effect of compounds after Ferrous Sulfate (Fe)/L-Ascorbic Acid (AscH(-)) insult. […] Cellular viability was determined by employing the MTT reduction assay. […]

[8] = design: method as in PMID 30158491; settings: DPPH assay; cited from earlier work
[9] = design: method as in literature; settings: value reported in the literature; ref literature; cited from earlier work
Aβ1-42 [10] = target: T1, Aβ1-42; design: method as in PMID 30158491; settings: Cinhibitor = 100 µM; cited from earlier work
[11] = AChE from electric eel, read-out: eeAChEi IC50
[12] = Aβ1-42, inhibitor 40 µM, SEM < 10%

Sequence of AChE of electroforus electricus (electric eel) (O42275 24-633): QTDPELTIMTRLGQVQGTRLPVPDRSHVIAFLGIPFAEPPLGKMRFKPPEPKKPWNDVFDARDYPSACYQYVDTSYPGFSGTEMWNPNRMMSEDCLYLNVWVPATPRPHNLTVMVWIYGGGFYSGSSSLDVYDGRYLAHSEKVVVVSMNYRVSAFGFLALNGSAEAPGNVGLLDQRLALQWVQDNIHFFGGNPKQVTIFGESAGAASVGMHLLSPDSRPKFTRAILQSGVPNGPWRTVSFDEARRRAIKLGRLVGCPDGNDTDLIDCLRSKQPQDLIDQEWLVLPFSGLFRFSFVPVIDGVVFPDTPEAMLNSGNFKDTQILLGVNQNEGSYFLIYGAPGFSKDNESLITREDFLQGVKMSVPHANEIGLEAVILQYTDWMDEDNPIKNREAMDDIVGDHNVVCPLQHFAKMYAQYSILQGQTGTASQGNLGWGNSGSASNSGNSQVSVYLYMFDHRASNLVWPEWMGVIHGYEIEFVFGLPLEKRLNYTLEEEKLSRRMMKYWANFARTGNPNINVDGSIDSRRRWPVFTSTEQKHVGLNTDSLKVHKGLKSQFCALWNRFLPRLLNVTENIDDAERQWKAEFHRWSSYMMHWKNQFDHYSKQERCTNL

O=C1C=C(NCCN2CCN(Cc3ccccc3)CC2)C(Cc2ccccc2)N1 (stereo not shown) [Compound 4, 5-Benzyl-4-((2-(4-benzylpiperazin-1-yl)ethyl)amino)-1,5-di-hydro-2H-pyrrol-2-one]
IC50 [1, 11]: 16 ± 2 µM
Antioxidant Activity EC50 [2]: >30 µmol/µmol of DPPH
Inhib. Aβ Aggreg. Self-Induced (Aβ1-42 [3]; [12]): 72.0%
inhibition at 40 µM (Aβ1-42 [3]; [12]): 72 to 78.4%
protection against Aβ1-42-induced toxicity [4]: do not confer protection
highest non-toxic concentration (selected concentration) [5]: 10 µM

Nc1c2c(nc3ccccc13)CCCC2 [Tacrine, reference compound]
inhibition at 40 µM (Aβ1-42 [3]): 31.2%

CCOC(=O)C1=C(O)C(C)NC1=O (stereo not shown) [Compound 3, Ethyl 4-hydroxy-5-methyl-2-oxo-2,5-dihydro-1H-pyrrole-3-carboxylate]
IC50 [1, 11]: 44 ± 4 µM
inhibition at 40 µM (Aβ1-42 [6]; read-out: Inhib. Aβ Aggreg. Cu2+-Induced): 63.8%
Antioxidant Activity EC50 [2]: >30 µmol/µmol of DPPH
inhibition at 40 µM (Aβ1-42 [3]; [12]): 57.4%

CC(C)C1NC(=O)C=C1NCCN1CCN(Cc2ccccc2)CC1 (stereo not shown) [Compound 5, 4-((2-(4-Benzylpiperazin-1-yl)ethyl)amino)-5-isopropyl-1,5-dihydro-2H-pyrrol-2-one]
IC50 [1, 11]: 24 ± 3 µM
Antioxidant Activity EC50 [2]: >30 µmol/µmol of DPPH
neuroprotection against Fe/Asc challenge [7]: conferred neuroprotection against the Fe/Asc challenge
Inhib. Aβ Aggreg. Self-Induced (Aβ1-42 [3]; [12]): 78.4%
inhibition at 40 µM (Aβ1-42 [3]; [12]): 72 to 78.4%
protection against Aβ1-42-induced toxicity [4]: do not confer protection; also recorded: not able to directly protect SH-SY5Y cells from Aβ1-42-induced cell toxicity
cytotoxicity on SH-SY5Y cell line ([5]; 10 μM to 100 μM, 24 h, at the active concentrations): non-cytotoxic; also recorded: do not show (except for compound 4) cytotoxicity
highest non-toxic concentration (selected concentration) [5]: 20 µM

CC[C@H](C)[C@@H]1NC(=O)C(C(C)=O)=C1O (stereo in doubt) [Tenuazonic acid]
IC50 ([1]; eeAChEi IC50, AChE from electric eel): 65 ± 4 µM
Inhib. Aβ Aggreg. Cu2+-Induced (Aβ1-42 [6]): did not demonstrate a significant difference of effect
Antioxidant Activity EC50 [8]: - 2.6 ± 0.2 [19] µmol/µmol of DPPH
log K (protonation constant) [9]: 3.523
inhibition at 40 µM (Aβ1-42 [3]; [12]): 25.2%
Inhib. Aβ Aggreg. Self-Induced (Aβ1-42 [10]): 50 ± 8%
